From PMC8778091, “In Silico-Based Discovery of Natural Anthraquinones with Potential against Multidrug-Resistant E. coli” (Pharmaceuticals, 2022)
≈ marks a conversion by molar mass, not a printed value.

Key:
MRSA (ATCC 25529) = test: MIC, agar dilution method, MRSA; format: cell-based, S. aureus; settings: Staphylococcus aureus; range 1-64 µg/mL, 37 °C, 18-20 h; read-out: MIC MRSA
Method: (§1) The selected top-scoring hits were evaluated for their antibacterial effect against two clinical multidrug-resistant strains of enterotoxigenic E. coli. Both isolates were isolated as clinical samples from Beni Suef general hospital, Beni Suef, Egypt. […] MRSA (ATCC 25529) and VRSA (clinical isolate from Beni Suef general hospital, Beni Suef, Egypt) were also used to further evaluate the tested compounds against resistant Gram-positive bacteria.
(§2) Minimum inhibitory concentrations for the test compounds were analyzed following the standard agar dilution method using Meuller-Hinton (MH) agar medium against different Gram-negative and positive bacteria (Table 1). Firstly, the tested compounds were prepared as a stock suspension with a 10 mg/mL final concentration in DMSO. Subsequently, the prepared stocks were diluted in 10 mL molten soft agar (0.5% agar) to obtain a concentration range from 1–64 µg/mL, then mixed and poured over a surface of MH agar (2% agar) plates and left for solidification. Finally, exponentially grown (O.D 600 nm of 0.6) test strains (Table 1) were diluted to a final density of 10^6 CFU/mL in MH broth and spotted (1 µL/spot) over the soft agar. Then, the plates were left for drying and incubated at 37 °C for 18–20 h. Controls were conducted using DMSO seeded soft agar. At the end of the experiment, the MIC for each compound was identified as the minimum concentration that inhibited the growth of the tested strain. The experiments were carried out in triplicates.

[1] = test system: E. coli (MDR) b clinical isolate; test: MIC, agar dilution method, E. coli MDR b; format: cell-based; settings: for MIC: Escherichia coli, range 1-64 µg/mL, 37 °C, 18-20 h, read-out: MIC E. coli (MDR) b; for MIC (antibiotic susceptibility) E. coli MDRb: Table S3, unpublished data of microbiology unit, Beni Suef general hospital, same procedure
Method: as §1, §2

[2] = test system: E. coli (MDR) a clinical isolate; test: MIC, agar dilution method, E. coli MDR a; format: cell-based; settings: for MIC: Escherichia coli, range 1-64 µg/mL, 37 °C, 18-20 h, read-out: MIC E. coli (MDR) a; for MIC (antibiotic susceptibility) E. coli MDRa: Table S3, unpublished data of microbiology unit, Beni Suef general hospital, same procedure
Method: as §1, §2

VRSA (clinical isolate) = test: MIC, agar dilution method, VRSA; format: cell-based, S. aureus; settings: Staphylococcus aureus, VRSA; range 1-64 µg/mL, 37 °C, 18-20 h; read-out: MIC VRSA
Method: as §1, §2

[3] = Cellular toxicity against normal fibroblasts WI-38 (MTT); format: cell-based; settings: human
Method: All selected top-scoring compounds were tested for their cellular toxicity against human fibroblasts cell line (WI-38). Cell line (WI-38; ATCC: CCL-75) was maintained in earth RPMI 1640 medium comprising 10% heat-inactivated fetal bovine serum (FBS) and grown at 37 °C and 5% CO2. The cell line was seeded on 96-well cell culture plates (2 × 10^4 cells/well). Cells were stimulated with tested compounds at different concentrations (from 1 to 50 µM) overnight in triplicates. Doxorubicin was used as a positive control. Cell viability was assessed by MTT assay. To normalize cell viability values, each plate included a triplicate of untreated cells considered as 100% viability, and a triplicate of cells treated with a cytotoxic mixture (200 ng/mL TNF, 200 ng/mL CD95L, 200 ng/mL TRAIL, 5 μg/mL CHX, 1% (w/v) sodium azide […]) considered as 0% viability. All other viability values were normalized according to the averages of these triplicates and analyzed by the Graph Pad Prism 5 software (La Jolla, CA, USA).

[4] = molecular target: T1, E. coli DAla:D-Ala ligase (Ddl-B) (Escherichia coli, UniProt P07862); test: Ddl-B enzymatic activity assay (inorganic phosphate, absorbance 650 nm); format: biochemical
T1 construct: purchased ProFoldin DDA100KE
Method: (§3) Ddl-B and Gyr-B activity assays were performed according to the manufacturer protocols (ProFoldin, Catalogue No. DDA100KE, and Inspiralis, Catalogue No. ATPG001, UK).
Ddl-B enzymatic activity assay is based on measuring the inorganic phosphate generated from the D-Alanine: D-Alanine ligation reaction. The inorganic phosphate is detected by absorbance at 650 nm. The assay reactions and detection were performed by using a 96-well plate. Different concentrations of the test compounds and the reference inhibitor D-cycloserine were prepared in DMSO (from 10 µM to 1000 µM). […] Thereafter, 33 μL of 10× enzyme substrate was prepared by mixing 3.3 μL of 100× enzyme substrate with 29.7 μL of water. Finally, 27 μL of the premix with 3 μL of the 10× enzyme substrate in each well were mixed. After 60 min of incubation at 37 °C, 45 μL of MPA3000 dye was added into the 30 μL of the reaction mixture. After 5 min of incubation, absorbance was measured at 650 nm.

[5] = test system: tested bacterial strains (E. coli MDR, MRSA, VRSA); test: Antibacterial evaluation, tested bacterial strains taken together; format: cell-based
Method: as §1, §2

[6] = molecular target: T2, E. coli gyrase B43 domain (Gyr-B) (Escherichia coli, UniProt P0AES6); test: biochemical; format: biochemical
T2 construct: 20 μL of the enzyme (E. coli gyrase B43 domain; 20 μM concentration); purchased Inspiralis ATPG001
Method: as §3
Gyr-B assay measured the capability of the tested compounds to hinder the ATPase activity of Gyr-B subunits. This assay links the hydrolysis of ATP by gyrase to the conversion of NADH to NAD^+, which can be measured by a change in absorbance at 340 nm. The assay reactions and detection were performed using a 96-well plate. […] First, the assay mix was prepared by mixing 20 μL of the assay buffer (50 mM Tris.HCl (pH 7.5), 1 mM EDTA, 5 mM magnesium chloride, 5 mM DTT, 10% (w/v) glycerol), 1 μL phosphoenolpyruvate (80 mM in water), 1.5 μL pyruvate kinase/lactate dehydrogenase stock, 2 μL NADH (20 mM in water), and 58.8 μL water. Thereafter, 63.3 μL of assay mix and 10 μL of the test compound solution and 20 μL of the enzyme (E. coli gyrase B43 domain; 20 μM concentration) were added into the wells and mixed by pipetting. After incubation for 10 min at 25 °C, 6.7 uL of ATP (30 mM) was added to each well. After 60 min of incubation at 25 °C, the absorbance was measured at 340 nm.

Row | SMILES | MIC (MRSA (ATCC 25529)) | MIC [1] | MIC [2] | MIC (VRSA (clinical isolate)) | further results
1 | CO[C@@H]1[C@@H](OC(N)=O)[C@@H](O)[C@H](Oc2ccc3c(O)c(NC(=O)c4ccc(O)c(CC=C(C)C)c4)c(=O)oc3c2C)OC1(C)C [Novobiocin, reference compound] | 1 µg/mL (≈ 1.63 µM) | 64 µg/mL (≈ 104 µM) | 64 µg/mL (≈ 104 µM) | 1 µg/mL (≈ 1.63 µM) | –
2 | COc1cccc2c1C(=O)c1c(O)c3c(c(O)c1C2=O)C[C@@](O)(C(=O)CO)C[C@@H]3O[C@H]1C[C@H](N)[C@H](O)[C@H](C)O1 [Doxorubicin, reference compound] | – | – | – | – | CC50 [3]: 26.2 ± 0.61 µM
3 | N[C@@H]1CON=C1O [D-cycloserine, reference compound] | 32 µg/mL (≈ 313 µM) | 16 µg/mL (≈ 157 µM) | 16 µg/mL (≈ 157 µM) | 32 µg/mL (≈ 313 µM) | IC50 ([4]; 10-1000 µM tested, read-out: IC50 Ddl-B): 362 µM; Ki ([4]; read-out: Ki Ddl-B): 118 ± 11.7 µM
4 | NCC[C@H](O)C(=O)N[C@@H]1C[C@H](N)[C@@H](O[C@H]2O[C@H](CN)[C@@H](O)[C@H](O)[C@H]2O)[C@H](O)[C@H]1O[C@H]1O[C@H](CO)[C@@H](O)[C@H](N)[C@H]1O [Amikacin, reference compound] | – | – | – | – | MIC (antibiotic susceptibility) E. coli MDRb [1]: 8 µg/mL (≈ 13.7 µM)
5 | CC(C)(O/N=C(\C(=O)N[C@@H]1C(=O)N2C(C(=O)[O-])=C(C[n+]3ccccc3)CS[C@H]12)c1csc(N)n1)C(=O)O [Ceftazidime, reference compound] | – | – | – | – | MIC (antibiotic susceptibility) E. coli MDRb [1]: 16 µg/mL (≈ 29.3 µM); MIC (antibiotic susceptibility) E. coli MDRa [2]: 32 µg/mL (≈ 58.5 µM)
6 | O=C1c2ccccc2C(=O)c2ccccc21 [Anthraquinone] | > 64 µg/mL | > 64 µg/mL | > 64 µg/mL | 64 µg/mL (≈ 307 µM) | Antibacterial activity in words, all tested bacteria [5]: inactive; Gyr-B inhibition in words [6]: inactive; IC50 [6]: > 100 µM; Ddl-B inhibition in words [4]: inactive
7 | C[C@H]1COc2c(N3CCN(C)CC3)c(F)cc3c(=O)c(C(=O)O)cn1c23 [Levofloxacin, reference compound] | – | – | – | – | MIC (antibiotic susceptibility) E. coli MDRa [2]: 16 µg/mL (≈ 44.3 µM)
8 | COc1ccc(Cc2nccc3cc(OC)c(OC)cc23)cc1OC [Papaverine] | > 64 µg/mL | > 64 µg/mL | > 64 µg/mL | > 64 µg/mL | Antibacterial activity in words, all tested bacteria [5]: inactive; CC50 [3]: 36.8 ± 0.93 µM; IC50 [6]: > 100 µM
